Test results: PMC8776894 (Communications Biology, 2022)
Values joined by “and” are separate entries in the source; they are usually repeats but may differ in a detail not shown here. Identical values can stand only once. Like-named read-outs stand apart in the source and are kept apart here.

Tests used:
mice = assay: Acute toxicity test (single i.p. dose); format: in vivo, mouse
Experimental: To ensure that the safety of VK in vivo, acute toxicity test was performed. […] Clinical symptoms (temperature, change in skin, eye color change, general physique, body weight, diarrhea, sedation, and organ index) were recorded (Supplementary Table 3). […] Karyopyknosisa and the cellular swelling of the hepatocyte were moderate in the liver of mice treated with VK (96 and 384 mg/kg). […]
Acute toxicity test. Systemic acute toxicity test by peritoneal injection was performed according to the guideline provided by Center for Drug Evaluation and Research. In addition to the normal group, male mice were randomly divided into the treated groups received a single dose of 1.5 mg/kg, 6 mg/kg, 24 mg/kg, 96 mg/kg and 384 body weight of VK. Clinical signs of toxicity such as mortality, skin, eyes, fur, respiratory pattern , changes in general behavior and activity were individually observed. […]
day, the mice were anesthetized with 1.5% isoflurane in a mixture of 30% O2 and 69% N2O. Blood was collected from muse eyeballs and mixed with 3.2% sodium citrate at a v/v ratio of 1:9. Then, the blood was centrifuged at 3,000 rpm for 10 min.
The obtained plasma was analyzed using an automatic coagulation apparatus (CA1500).

HT22 cells (OGD/R) = assay: Seahorse O2 consumption rate (OCR); format: cell-based, mouse; conditions: dose-dependent
Experimental: HT22 cells were counted and plated at 8000 cells per well in a Seahorse XF96 Cell Culture Microplate for all experiments (Agilent). They were then treated with VK (0.0735 or 0.735 μM) for 24 h. […] Next, HT22 cells were washed after 24 h of incubation and were incubated in a 0% CO2 chamber at 37 °C for 1 h, before being placed into a Seahorse XFe96 Analyzer (Agilent). In OCR experiment, HT22 cells were treated, with 2 μM of oligomycin, 5 μM of FCCP, and 1 μM of rotenone and antimycin, respectively; to assess ECAR, they were treated with 1 μM of rotenone and antimycin and 50 mM of 2-DG. All OCR and ECAR data were normalized to cell number per well using WAVE (Agilent).

[1] = system: pyramidal neurons of mouse neocortex; format: in vivo; conditions: for Fig.6g mEPSC amplitude per recorded neuron: individual values
[2] = system: microglia in brain of MCAO/R mice; assay: IBA1 staining of microglia (IHC, immunofluorescence); format: in vivo, mouse
rat CNS = conditions: injected directly into the rat CNS; cited from earlier work
Description: B1R and B2R both belong to the G protein-coupled receptor (GPCR) family, with B2R mediating most of the physiological functions of kinin. It has been increasingly appreciated that BK and Lys-BK could act as a ‘double-edged sword’. By inhibiting oxidative stress and apoptosis, the systemic or local delivery of human TK protects against mouse myocardial I/R injury via B2R. Similarly, we described that the neuroprotective effects of VK on stroke in mice was inhibited by HOE140, the specific antagonist of B2R. We also conducted the autodock experiment to evaluate the combination of VK and B2R. The ...

[3] = system: BV2 microglia cells (OGD/R); assay: BV2 cell viability after OGD/R (CCK8); conditions: VK 0.0735, 0.735, 7.35 µM
MCAO/R mice = assay: Rotarod test; format: in vivo, mouse; conditions: VK 150 and 300 µg/kg i.p.
Experimental: The mice were placed in a RotaRod Treadmill (Harvard Apparatus, LE8205) for adaptive training 3 days before MACO/R. The rotating rod was started and the speed was set to accelerate to 40 rpm within 5 min. The mice drop time was recorded as an indicator. The test was performed at 24 and 48 h after MCAO/R.

[4] = VK 1.5 mg/kg single i.p., n=5, 14 d observation
[5] = VK 6 mg/kg single i.p., n=6, 14 d observation
[6] = VK 24 mg/kg single i.p., n=6, 14 d observation
[7] = VK 96 mg/kg single i.p., n=6, 14 d observation
[8] = VK 384 mg/kg single i.p., n=6, 14 d observation

## Gly-Arg-Pro-Hyp-Gly-Phe-Ser-Pro-Phe-Arg-Ile-Asp [VK, Vespakinin-M]
mice; [4]
  Body weight: Normal
  Breathing difficulty: Normal
  Change In skin: No effect
  Coma: Normal
  Death: Alive
  Diarrhea: Normal
  Drowsiness: Normal
  Eye color change: No effect
  Organ index: Normal
  Sedation: Normal
  Temperature: Normal
  Tremor: Normal
mice; [5]
  Body weight: Normal
  Breathing difficulty: Normal
  Change In skin: No effect
  Coma: Normal
  Death: Alive
  Diarrhea: Normal
  Drowsiness: Normal
  Eye color change: No effect
  Organ index: Normal
  Sedation: Normal
  Temperature: Normal
  Tremor: Normal
mice; [6]
  Body weight: Decline
  Breathing difficulty: Normal
  Change In skin: No effect
  Coma: Normal
  Death: Alive
  Diarrhea: Normal
  Drowsiness: Normal
  Eye color change: No effect
  Organ index: Normal
  Sedation: Normal
  Temperature: Normal
  Tremor: Normal
mice; [7]
  Body weight: Decline
  Breathing difficulty: Normal
  Change In skin: No effect
  Coma: Normal
  Death: Alive
  Diarrhea: Normal
  Drowsiness: Normal
  Eye color change: No effect
  Organ index: Normal
  Sedation: Normal
  Temperature: Normal
  Tremor: Normal
mice; VK 384 mg/kg single i.p.
  liver index: increased liver index
mice; [8]
  Body weight: Decline
  Breathing difficulty: Normal
  Change In skin: No effect
  Coma: Normal
  Death: Alive
  Diarrhea: Normal
  Drowsiness: Normal
  Eye color change: No effect
  Organ index: Increased
  Sedation: Normal
  Temperature: Normal
  Tremor: Normal
mice; VK 24, 96 and 384 mg/kg single i.p.
  Body weight: continued to lose weight until day 5
mice; all treatment dose groups (1.5-384 mg/kg single i.p.)
  index of brain, myocardium and kidney: no difference
mice; mice
  safe multiple of the effective dose (150 μg/kg): 640 times
mice; mice, single i.p. dose
  safe doses of VK in acute toxicity tests: < 96 mg/kg
mice; single i.p. dose 1.5, 6, 24, 96 and 384 mg/kg, observed for 24 h
  mortality: no mortality was observed
HT22 cells (OGD/R)
  mitochondrial oxygen consumption rate in neurons: accelerated the mitochondrial oxygen consumption rate
[1]; 48 h after MCAO
  action potential threshold of pyramidal neurons vs vehicle: higher action potential threshold
[1]; VK150, n = 14
  Fig.6g mEPSC amplitude per recorded neuron: 19.084 pA and 16.328 pA and 11.543 pA and 20.277 pA and 16.752 pA and 17.611 pA and 14.33 pA and 14.518 pA and 18.178 pA and 20.574 pA and 16.408 pA and 17.172 pA and 18.064 pA and 16.721 pA
[1]; VK300, n = 18
  Fig.6g mEPSC amplitude per recorded neuron: 16.409 pA and 16 pA and 15.374 pA and 15.042 pA and 15.977 pA and 15.473 pA and 16.722 pA and 19.242 pA and 17.388 pA and 16.685 pA and 16.328 pA and 14.712 pA and 16.978 pA and 16.137 pA and 19.209 pA and 18.238 pA and 16.732 pA and 16.833 pA
[1]; after stroke in mice
  amplitude of mEPSCs: no obvious effects on the amplitude of mEPSCs
[2]
  I/R-induced elevation of IBA1 expression in cerebral cortex: greatly blunted
Rat CNS
  anti-nociceptive potency relative to BK: approximately three times more potent
[3]
  OGD/R-reduced viability of BV2 cells: reversed by VK treatment in a dose-dependent manner
MCAO/R mice
  sensorimotor function, rotarod test: improved functional performance and ameliorated the sensorimotor asymmetry
